In ChEMBL document CHEMBL5329199, “Discovery of novel dual Bruton's tyrosine kinase (BTK) and Janus kinase 3 (JAK3) inhibitors as a promising strategy for rheumatoid arthritis” (Bioorg Med Chem, 2023):

How the values were obtained:
[1] = molecular target: Tyrosine-protein kinase BTK (Homo sapiens, UniProt Q06187); assay: Inhibition of BTK (unknown origin) preincubated for 10 mins followed by kinase substrate and ATP addition and measured for 20 mins by mobility shift assay
[2] = molecular target: T1, Tyrosine-protein kinase JAK3 (Homo sapiens, UniProt P52333); assay: Inhibition of JAK3 (unknown origin) preincubated for 10 mins followed by kinase substrate and ATP addition and measured for 30 mins by mobility shift assay
T1 sequence (P52333 whole entry): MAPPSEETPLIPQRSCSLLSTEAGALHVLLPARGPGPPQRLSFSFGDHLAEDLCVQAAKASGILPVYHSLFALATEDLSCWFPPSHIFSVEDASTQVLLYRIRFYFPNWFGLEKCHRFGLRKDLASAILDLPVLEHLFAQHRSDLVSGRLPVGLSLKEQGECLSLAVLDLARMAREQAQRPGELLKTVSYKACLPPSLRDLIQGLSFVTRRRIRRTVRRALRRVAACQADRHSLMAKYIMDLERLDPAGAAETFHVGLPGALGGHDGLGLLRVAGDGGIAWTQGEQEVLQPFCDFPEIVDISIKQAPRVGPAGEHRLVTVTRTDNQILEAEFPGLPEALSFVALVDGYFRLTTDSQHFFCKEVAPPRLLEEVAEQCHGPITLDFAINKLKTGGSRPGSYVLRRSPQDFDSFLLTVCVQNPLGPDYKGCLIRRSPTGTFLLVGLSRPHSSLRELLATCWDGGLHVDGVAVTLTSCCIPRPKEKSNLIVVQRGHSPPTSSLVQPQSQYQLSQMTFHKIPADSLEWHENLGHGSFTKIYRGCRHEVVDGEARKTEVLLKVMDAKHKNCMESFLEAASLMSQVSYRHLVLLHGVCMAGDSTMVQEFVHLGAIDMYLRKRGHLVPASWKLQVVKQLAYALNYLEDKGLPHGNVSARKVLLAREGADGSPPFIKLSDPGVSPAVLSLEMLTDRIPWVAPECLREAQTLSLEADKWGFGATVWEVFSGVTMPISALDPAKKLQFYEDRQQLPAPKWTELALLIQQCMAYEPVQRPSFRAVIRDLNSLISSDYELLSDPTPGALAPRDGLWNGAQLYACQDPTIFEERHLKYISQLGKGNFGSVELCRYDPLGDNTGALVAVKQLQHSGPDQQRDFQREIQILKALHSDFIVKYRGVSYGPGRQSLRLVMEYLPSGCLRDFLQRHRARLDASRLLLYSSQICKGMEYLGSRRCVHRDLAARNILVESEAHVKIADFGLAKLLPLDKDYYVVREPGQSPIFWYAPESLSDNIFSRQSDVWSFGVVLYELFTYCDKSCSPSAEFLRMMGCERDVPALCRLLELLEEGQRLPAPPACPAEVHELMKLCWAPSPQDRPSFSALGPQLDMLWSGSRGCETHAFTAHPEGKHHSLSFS

[3] = test system: BaF3; assay: Antiproliferative activity against mouse BaF3 cells expressing JAK3 mutant assessed as inhibition of cell growth incubated for 72 hrs by Cell Titer-Glo assay; format: functional, cell-based; settings: BaF3, 72 h
[4] = test system: Daudi; assay: Antiproliferative activity against human Daudi cells assessed as inhibition of cell growth incubated for 72 hrs by Cell Titer-Glo assay; format: functional, cell-based
[5] = Acute toxicity in po dosed ICR mouse assessed as minimum lethal dose measured for 7 days; format: organism-based; settings: in vivo, 168 h, time 7 day

Sequence of Tyrosine-protein kinase BTK (Q06187 whole entry): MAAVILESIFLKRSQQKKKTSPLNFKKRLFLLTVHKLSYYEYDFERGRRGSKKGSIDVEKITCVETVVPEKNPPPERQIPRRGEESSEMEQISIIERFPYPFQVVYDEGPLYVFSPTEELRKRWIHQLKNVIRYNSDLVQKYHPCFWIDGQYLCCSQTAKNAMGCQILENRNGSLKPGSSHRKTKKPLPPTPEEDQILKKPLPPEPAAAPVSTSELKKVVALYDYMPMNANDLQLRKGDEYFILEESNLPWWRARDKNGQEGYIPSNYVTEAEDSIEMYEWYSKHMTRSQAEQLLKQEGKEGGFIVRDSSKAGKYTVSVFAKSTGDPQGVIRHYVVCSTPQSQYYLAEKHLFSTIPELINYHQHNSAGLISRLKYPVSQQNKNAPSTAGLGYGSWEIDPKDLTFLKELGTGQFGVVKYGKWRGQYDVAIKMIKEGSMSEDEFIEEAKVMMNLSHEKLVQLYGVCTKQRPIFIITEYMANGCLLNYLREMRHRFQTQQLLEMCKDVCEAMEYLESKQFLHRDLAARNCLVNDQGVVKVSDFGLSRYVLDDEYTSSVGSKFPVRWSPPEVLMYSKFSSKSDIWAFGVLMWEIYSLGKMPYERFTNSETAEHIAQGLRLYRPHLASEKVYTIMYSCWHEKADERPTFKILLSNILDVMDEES

| Compound | IC50 [1] [nM] | IC50 [2] [nM] | IC50 [3] [nM] | IC50 [4] [nM] | MLD [5] [mg/kg] |
| --- | --- | --- | --- | --- | --- |
| C=CC(=O)N1CCC[C@@H](n2nc(-c3ccc(NC(=O)C45CC6CC(CC(C6)C4)C5)c4c3OCO4)c3c(N)ncnc32)C1 | 5.94 | 500 | – | – | – |
| C=CC(=O)N1CCC[C@@H](n2nc(-c3ccc(NC(=O)C45CCC(CC4)C5)c4c3OCO4)c3c(N)ncnc32)C1 | 1.48 | 500 | – | – | – |
| C=CC(=O)N1CCC[C@@H](n2nc(-c3ccc(NC(=O)c4cc5ccccc5s4)c4c3OCO4)c3c(N)ncnc32)C1 | 0.42 | 19 | – | – | – |
| C=CC(=O)N1CCC[C@@H](n2nc(-c3ccc(NC(=O)c4ccco4)c4c3OCO4)c3c(N)ncnc32)C1 | 1.48 | 192 | – | – | – |
| C=CC(=O)N1CCC[C@@H](n2nc(-c3ccc(NC(=O)c4ccc[nH]4)c4c3OCO4)c3c(N)ncnc32)C1 | 2.4 | 100 | – | – | – |
| CC#CC(=O)N1CCC[C@@H](n2nc(-c3ccc(NC(=O)c4ccccc4)c4c3OCO4)c3c(N)ncnc32)C1 | 24 | > 10000 | – | – | – |
| C=CC(=O)N1CCC[C@@H](n2nc(-c3ccc(NC(=O)C4CCN(C)CC4)c4c3OCO4)c3c(N)ncnc32)C1 | 585 | > 10000 | – | – | – |
| C=CC(=O)N1CCC[C@@H](n2nc(-c3ccc(NC(=O)c4ccc(C#N)cc4)c4c3OCO4)c3c(N)ncnc32)C1 | 2.9 | 372 | – | – | – |
| C=CC(=O)N1CCC[C@@H](n2nc(-c3ccc(NC(=O)c4ccc(Cl)cc4)c4c3OCO4)c3c(N)ncnc32)C1 | 1.3 | 44 | – | – | – |
| C=CC(=O)N1CCC[C@@H](n2nc(-c3ccc(NC(=O)c4ccc(OC)c(OC)c4)c4c3OCO4)c3c(N)ncnc32)C1 | 3.4 | 147 | – | – | – |
| N#C/C(=C\C1CC1)C(=O)N1CCC[C@@H](n2nc(-c3ccc(NC(=O)c4ccccc4)c4c3OCO4)c3c(N)ncnc32)C1 | 3 | > 10000 | – | – | – |
| C=CC(=O)N1CCC[C@@H](n2nc(-c3ccc(NC(=O)c4ccc(-c5ccccc5)cc4)c4c3OCO4)c3c(N)ncnc32)C1 | 2.1 | 120 | – | – | – |
| C=CC(=O)Nc1cccc(Cn2nc(-c3ccc(NC(=O)c4ccccc4)c4c3OCO4)c3c(N)ncnc32)c1 | 29 | > 10000 | – | – | – |
| C=CC(=O)N1CCC[C@@H](n2nc(-c3ccc(NC(=O)c4ccc(C(F)(F)F)cc4)c4c3OCO4)c3c(N)ncnc32)C1 | 1.8 | 51 | – | – | – |
| C=CC(=O)N1CCC[C@@H](n2nc(-c3ccc(NC(=O)c4ccccc4N(C)C)c4c3OCO4)c3c(N)ncnc32)C1 | 3.49 | 122 | – | – | – |
| C=CC(=O)N1CCC[C@@H](n2nc(-c3ccc(Oc4ccccc4)cc3)c3c(N)ncnc32)C1 [IBRUTINIB] | – | – | 1420 | 656 | 750 |
